# Laboratory results: patent US8557843B2, “Quinoline derivatives and their use as tyrosine kinase inhibitors” (ClanoTech AB, priority 2007, dated 2013)
# Tests used:
# [1] = target: T1, alpha-v-beta-3 (Homo sapiens, UniProt P05106+P06756); test: Integrin assay: SHG, inhibition of RGD-peptide-induced conformational change; type: biochemical; details: compound pre-incubated at 100 μM for 20 minutes, then RGD peptide 400 μM; labeled alpha-v-beta-3
# T1 construct: obtained from academic sources as recombinant, soluble proteins (the extracellular domain)
# Procedure: (§1) This assay was conducted by Biodesy (Burlingame, Calif., USA). Purified integrins were obtained from academic and commercial sources. Alpha-5-beta-1 and alpha-v-beta-3 were obtained from academic sources as recombinant, soluble proteins (the extracellular domain).
# (§2) A standard labeling protocol developed for integrins was applied to each of the three proteins. All proteins were successfully labeled with an average label:protein ratio of ˜4:1. The two soluble, labeled proteins (alpha5beta1 and alphavbeta3) produced background SHG (second-harmonic generation) signals. They also produced conformational change signals upon exposure to GRGDSP (RGD-peptide, a fibronectin-derived peptide Gly-Arg-Gly-Asp-Ser-Pro). The peptide was added at 400 μM and signal changes were immediate (FIG. 1).
# (§3) Next, Example 4 was pre-incubated at 100 μM with the labeled proteins for 20 minutes. RGD peptide was then added (400 μM) to stimulate the protein and to test each compound for inhibition.
# [2] = target: T2, alpha-5-beta-1 (Homo sapiens, UniProt P05556+P08648); test: as above; type: biochemical; details: compound pre-incubated at 100 μM for 20 minutes, then RGD peptide 400 μM; labeled alpha-5-beta-1
# T2 construct: obtained from academic sources as recombinant, soluble proteins (the extracellular domain)
# Procedure: as §1, §2, §3
# [3] = tested on: human Calu-6 lung cancer cells; test: Tumor xenograft model; type: in vivo, SCID mice; details: 25 mg/kg/day; for inhibition of tumor volume: once daily for 17 days, Calu-6 subcutaneous in SCID mice
# Procedure: Female 6-week-old SCID mice were used for tumor studies. Approximately 10^6 human Calu-6 lung cancer cells growing in logarithmic phase were harvested and resuspended in media, and a single cell solution in a volume of […] was implanted subcutaneously at the right flank of each animal. 10 mice were used in the treated groups and 10 mice were used in the control groups. Systemic treatment by oral administration or iv injections with either […] of vehicle or active substance (25 mg/kg/day) was begun when tumors reached a size of 300 mm^3 and continued once daily for a total of 17 days. Visible tumors were present day 5-10 after implantation. Primary tumors were measured with digital calipers on the days indicated. Tumor volumes were calculated according to the formula: Length×width^2×0.52 as reported.
# [4] = tested on: CNV (chorodial neovascularization); test: Laser induced mouse eye model (CNV); type: in vivo; details: given orally at 50 mg/kg/day, laser-induced CNV in mice
# Source text: This laser-induced model of CNV is a highly reproducible model that mimics many features of CNV occurring in the wet form of age-related macular degeneration (AMD), the leading cause of blindness in the elderly.
# T1 sequence (P06756 31-992 limits assumed): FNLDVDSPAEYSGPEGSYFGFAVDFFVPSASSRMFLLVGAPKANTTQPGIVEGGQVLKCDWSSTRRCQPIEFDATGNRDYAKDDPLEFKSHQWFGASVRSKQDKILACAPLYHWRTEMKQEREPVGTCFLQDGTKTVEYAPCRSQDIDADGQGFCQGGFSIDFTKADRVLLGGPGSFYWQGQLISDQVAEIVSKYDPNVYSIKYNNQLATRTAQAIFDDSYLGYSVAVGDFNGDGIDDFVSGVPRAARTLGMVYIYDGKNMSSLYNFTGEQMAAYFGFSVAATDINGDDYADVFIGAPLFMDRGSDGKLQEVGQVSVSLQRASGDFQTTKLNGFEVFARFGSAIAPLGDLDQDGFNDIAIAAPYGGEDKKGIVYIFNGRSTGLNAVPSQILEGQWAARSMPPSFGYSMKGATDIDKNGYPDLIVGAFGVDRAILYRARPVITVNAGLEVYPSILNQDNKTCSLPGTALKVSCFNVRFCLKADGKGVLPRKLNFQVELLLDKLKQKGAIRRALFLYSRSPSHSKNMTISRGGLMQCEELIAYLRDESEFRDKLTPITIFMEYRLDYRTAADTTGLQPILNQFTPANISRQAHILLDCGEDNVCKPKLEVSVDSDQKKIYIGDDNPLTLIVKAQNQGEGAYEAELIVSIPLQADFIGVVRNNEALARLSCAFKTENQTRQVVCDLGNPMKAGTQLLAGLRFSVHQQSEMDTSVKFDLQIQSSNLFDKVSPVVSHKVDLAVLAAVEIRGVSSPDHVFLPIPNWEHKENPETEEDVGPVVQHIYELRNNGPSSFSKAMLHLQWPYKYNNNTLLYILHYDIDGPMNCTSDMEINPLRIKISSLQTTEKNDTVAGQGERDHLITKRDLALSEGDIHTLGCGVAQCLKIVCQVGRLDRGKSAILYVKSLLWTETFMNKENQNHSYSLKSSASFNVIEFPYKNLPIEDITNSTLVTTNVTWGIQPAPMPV
# T1 sequence (P05106 27-718 limits assumed): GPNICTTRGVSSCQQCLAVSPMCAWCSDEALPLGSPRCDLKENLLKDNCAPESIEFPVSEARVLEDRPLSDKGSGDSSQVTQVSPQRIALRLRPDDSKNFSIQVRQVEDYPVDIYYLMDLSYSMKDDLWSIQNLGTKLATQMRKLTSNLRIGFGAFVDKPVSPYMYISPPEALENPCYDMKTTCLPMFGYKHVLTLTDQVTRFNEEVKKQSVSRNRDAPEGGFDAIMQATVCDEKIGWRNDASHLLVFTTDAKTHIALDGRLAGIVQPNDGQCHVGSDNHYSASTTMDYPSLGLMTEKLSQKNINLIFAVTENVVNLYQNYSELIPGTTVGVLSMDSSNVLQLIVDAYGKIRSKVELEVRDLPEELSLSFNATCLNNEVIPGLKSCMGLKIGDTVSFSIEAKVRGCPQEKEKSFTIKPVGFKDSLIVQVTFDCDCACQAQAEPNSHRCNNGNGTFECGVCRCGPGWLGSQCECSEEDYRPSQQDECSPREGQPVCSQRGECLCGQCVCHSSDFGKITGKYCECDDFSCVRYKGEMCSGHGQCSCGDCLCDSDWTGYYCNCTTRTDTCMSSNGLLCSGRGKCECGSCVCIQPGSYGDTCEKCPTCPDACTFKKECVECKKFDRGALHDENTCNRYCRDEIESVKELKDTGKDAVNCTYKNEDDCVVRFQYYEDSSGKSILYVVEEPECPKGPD
# T2 sequence (P08648 42-995 limits assumed): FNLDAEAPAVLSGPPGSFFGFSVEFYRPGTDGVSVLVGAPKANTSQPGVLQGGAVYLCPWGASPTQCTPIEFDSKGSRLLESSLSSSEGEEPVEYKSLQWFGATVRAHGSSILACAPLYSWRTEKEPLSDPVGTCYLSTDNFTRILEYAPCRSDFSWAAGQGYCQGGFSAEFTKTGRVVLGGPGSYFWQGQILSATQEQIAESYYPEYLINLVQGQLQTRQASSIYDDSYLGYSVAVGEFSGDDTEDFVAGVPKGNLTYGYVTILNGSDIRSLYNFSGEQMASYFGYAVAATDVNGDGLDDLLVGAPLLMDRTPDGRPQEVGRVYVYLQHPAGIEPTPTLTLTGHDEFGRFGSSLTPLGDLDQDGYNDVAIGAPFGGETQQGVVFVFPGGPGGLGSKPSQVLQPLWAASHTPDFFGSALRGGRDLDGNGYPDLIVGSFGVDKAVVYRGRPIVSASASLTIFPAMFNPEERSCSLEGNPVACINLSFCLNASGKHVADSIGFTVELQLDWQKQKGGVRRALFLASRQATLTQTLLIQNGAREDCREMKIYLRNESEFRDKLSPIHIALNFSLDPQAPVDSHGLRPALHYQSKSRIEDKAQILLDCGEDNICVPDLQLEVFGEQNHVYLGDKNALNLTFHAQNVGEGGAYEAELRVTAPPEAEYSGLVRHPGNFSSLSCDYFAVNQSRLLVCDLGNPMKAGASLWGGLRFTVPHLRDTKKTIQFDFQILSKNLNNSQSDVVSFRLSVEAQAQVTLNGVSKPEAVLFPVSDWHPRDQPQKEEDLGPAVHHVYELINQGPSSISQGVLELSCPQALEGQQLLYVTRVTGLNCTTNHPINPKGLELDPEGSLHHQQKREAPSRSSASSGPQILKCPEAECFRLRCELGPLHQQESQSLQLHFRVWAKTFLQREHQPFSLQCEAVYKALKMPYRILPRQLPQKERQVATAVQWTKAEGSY
# T2 sequence (P05556 21-728 limits assumed): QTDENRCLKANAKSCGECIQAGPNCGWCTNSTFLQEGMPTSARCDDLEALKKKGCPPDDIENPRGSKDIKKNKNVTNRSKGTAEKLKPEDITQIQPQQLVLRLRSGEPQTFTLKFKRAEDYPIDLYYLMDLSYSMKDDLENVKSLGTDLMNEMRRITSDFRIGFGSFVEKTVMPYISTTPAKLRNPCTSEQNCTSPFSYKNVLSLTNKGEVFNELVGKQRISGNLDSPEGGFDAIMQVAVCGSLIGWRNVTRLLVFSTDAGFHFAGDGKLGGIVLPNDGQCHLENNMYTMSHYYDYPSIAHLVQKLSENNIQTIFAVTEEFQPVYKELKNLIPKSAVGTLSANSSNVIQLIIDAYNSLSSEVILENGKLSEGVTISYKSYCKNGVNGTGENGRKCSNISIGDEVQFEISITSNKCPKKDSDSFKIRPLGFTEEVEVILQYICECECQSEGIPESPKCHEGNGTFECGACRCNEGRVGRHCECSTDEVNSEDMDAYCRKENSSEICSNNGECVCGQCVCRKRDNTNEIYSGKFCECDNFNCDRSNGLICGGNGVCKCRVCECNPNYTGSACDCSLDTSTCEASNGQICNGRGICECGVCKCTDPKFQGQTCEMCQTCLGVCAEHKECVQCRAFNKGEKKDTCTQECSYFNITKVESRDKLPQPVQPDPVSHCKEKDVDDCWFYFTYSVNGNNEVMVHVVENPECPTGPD
compound,measurement,setting,value
"CNC(=O)c1ccc2ncc(C(=O)O)c(Nc3ccc(OC)cc3)c2c1 [Example 4, 4-[(4-Methoxyphenyl)amino]-6-(methylcarbamoyl)quinoline-3-carboxylic Acid]",effect on RGD-induced conformational change (SHG signal),[1],no effect
same,effect on RGD-induced conformational change (SHG signal),[2],prevented RGD-induced conformational change
same,inhibition of angiogenesis,"[3]; both groups (oral and iv), Calu-6 xenograft",inhibits angiogenesis significantly
same,inhibition of tumor volume,[3]; iv treatment,71%
same,inhibition of tumor volume,[3]; oral treatment,52%
same,inhibition of CNV growth in eye compared with control,[4],42%
